Assay results from ChEMBL document CHEMBL4622917, “Structure Elucidation and Absolute Configuration Determination of Nortriterpenoids from Picramnia glazioviana” (J Nat Prod, 2020).
Active and inactive are the calls of the source. The calls are words filed in the database; no cut-off is given here.

How the values were obtained:
[1] = test system: A549; test: Cytotoxicity against human A549 cells incubated for 48 hrs by MTT assay; format: functional, cell-based; conditions: A549, 48 h
[2] = test system: MDA-MB-231; test: Cytotoxicity against human MDA-MB-231 cells assessed as reduction in cell viability at 25 to 50 uM incubated for 48 hrs by MTT assay relative to control; format: functional, cell-based
[3] = test system: A549; test: Cytotoxicity against human A549 cells assessed as cell viability at 100 uM incubated for 48 hrs by MTT assay relative to control; format: functional; conditions: A549, 48 h, read-out: Activity
[4] = test system: MDA-MB-231; test: Cytotoxicity against human MDA-MB-231 cells incubated for 48 hrs by MTT assay; format: functional, cell-based; conditions: MDA-MB-231, 48 h
[5] = test system: SK-BR-3; test: Cytotoxicity against human SKBR3 cells assessed as cell viability at 100 uM incubated for 48 hrs by MTT assay relative to control; format: functional; conditions: SK-BR-3, 48 h, read-out: Activity
[6] = test system: MDA-MB-231; test: Cytotoxicity against human MDA-MB-231 cells assessed as cell viability at 100 uM incubated for 48 hrs by MTT assay relative to control; format: functional; conditions: MDA-MB-231, 48 h, read-out: Activity
[7] = test system: SK-BR-3; test: Cytotoxicity against human SKBR3 cells incubated for 48 hrs by MTT assay; format: functional, cell-based; conditions: SK-BR-3, 48 h
[8] = test system: MDA-MB-231; test: Cytotoxicity against human MDA-MB-231 cells assessed as reduction in cell viability at 12.5 to 100 uM incubated for 48 hrs by MTT assay relative to control; format: functional, cell-based
[9] = test system: MDA-MB-231; test: Cytotoxicity against human MDA-MB-231 cells assessed as reduction in cell viability at 25 to 100 uM incubated for 48 hrs by MTT assay relative to control; format: functional, cell-based
[10] = test system: MDA-MB-231; test: Cytotoxicity against human MDA-MB-231 cells assessed as reduction in cell viability at 50 to 100 uM incubated for 48 hrs by MTT assay relative to control; format: functional, cell-based
[11] = test system: A549; test: Cytotoxicity against human A549 cells assessed as reduction in cell viability at 25 to 100 uM incubated for 48 hrs by MTT assay relative to control; format: functional, cell-based

SMILES | IC50 [1] [µM] | Activity [2] | viability at 100 µM [3] [%] | IC50 [4] [µM] | viability at 100 µM [5] [%] | viability at 100 µM [6] [%] | IC50 [7] [µM] | Activity [8] | Activity [9] | Activity [10] | Activity [11]
COC(=O)[C@H](C1=C2[C@H]3O[C@H]3[C@@H]3[C@@]45COC(=O)C[C@@H]4OC(C)(C)[C@@H]5C[C@@H](OC(=O)c4ccccc4)[C@@]3(C)[C@]2(C)CCC1=O)C(C)(C)CC(=O)O | > 10 | Active | > 50 | > 10 | > 50 | > 50 | > 10 | – | – | – | –
CC1(C)O[C@H]2CC(=O)OC[C@]23[C@H]2CCC4=C([C@@H]5CCC(=O)O5)C(=O)CC[C@@]4(C)[C@]2(C)[C@H](OC(=O)c2ccccc2)C[C@@H]13 | > 10 | – | > 50 | > 10 | > 50 | > 50 | > 10 | Active | – | – | –
COC(=O)[C@@H]1C2=C(CC[C@]3(C)C2=CC[C@@H]2[C@@]45COC(=O)C[C@@H]4OC(C)(C)[C@@H]5C[C@@H](O)[C@]23C)OC(=O)CC1(C)C | > 10 | – | > 50 | > 10 | > 50 | > 50 | > 10 | – | – | – | –
CC1(C)O[C@H]2CC(=O)OC[C@]23[C@H]2CCC4=C([C@H]5CCC(=O)O5)C(=O)CC[C@@]4(C)[C@]2(C)[C@H](OC(=O)c2ccccc2)C[C@@H]13 | > 10 | – | > 50 | > 10 | > 50 | > 50 | > 10 | – | Active | – | –
COC(=O)[C@H](C1=C2C=C[C@@H]3[C@@]45COC(=O)C[C@@H]4OC(C)(C)[C@@H]5C[C@@H](OC(=O)c4ccccc4)[C@@]3(C)[C@]2(C)CCC1=O)C(C)(C)CC(=O)O | > 10 | – | > 50 | > 10 | > 50 | > 50 | > 10 | – | – | Active | –
COC(=O)CC(C)(C)[C@H](C(=O)OC)C1=C2CC[C@@H]3[C@@]45COC(=O)C[C@@H]4OC(C)(C)[C@@H]5CC[C@@]3(C)[C@]2(C)CCC1=O | > 10 | – | > 50 | > 10 | > 50 | > 50 | > 10 | – | – | Active | Active
CC1(C)O[C@H]2CC(=O)OC[C@]23[C@H]2CCC4=C([C@H]5CCC(=O)O5)C(=O)CC[C@@]4(C)[C@]2(C)CC[C@@H]13 | > 10 | – | > 50 | > 10 | > 50 | > 50 | > 10 | – | – | – | –
COC(=O)CC(C)(C)[C@H](C(=O)OC)C1=C2CC[C@@H]3[C@@]45COC(=O)C[C@@H]4OC(C)(C)[C@@H]5C[C@@H](OC(=O)c4ccccc4)[C@@]3(C)[C@]2(C)CCC1=O | > 10 | – | > 50 | > 10 | > 50 | > 50 | > 10 | – | – | – | –
